Assay results reported in US20220339143A1, “TAK-925 FOR USE IN TREATING NARCOLEPSY” (Takeda Pharmaceutical Company Limited, priority 2019, published 2022).

Test system: patients with narcolepsy type 1 (NT1)
Assay: Subjective daytime sleepiness as assessed by Karolinska Sleepiness Scale (KSS), single dose (Cohorts 5, 6, 7)
Type: in vivo, human
Conditions: for KSS Change from Baseline, Mean / KSS Change from Baseline, Median / KSS Observed Value at Visit, Mean / KSS Observed Value at Visit, Median: Cmpd A 5 mg (N = 6)
Protocol: Daytime sleepiness as assessed by the Karolinska Sleepiness Scale (KSS).
Daytime sleepiness as assessed by KSS at predose and hourly until 11 hours after the start of infusion is presented in Table 13 as summary, in Table 14 as ANOVA and in Table 15 as ANOVA of change from baseline.

Q: How did the “LS mean difference (95% CI) of KSS vs placebo during the 9 hour infusion, upper end of range” value (“LS mean difference (95% CI) … upper end of range” for short) (5 mg) turn out when `COC(=O)N1CCC[C@H](NS(C)(=O)=O)[C@@H]1CO[C@H]1CC[C@@H](c2ccccc2)CC1` [Compound A, methyl (2R,3S)-3-((methylsulfonyl)amino)-2-(((cis-4-phenylcyclohexyl)oxy)methyl)piperidine-1-carboxylate] was run?
A: −0.667 (−2.641, 1.307)

Q: What about the “Change from Baseline in KSS, ANOVA Estimate (Cmpd A - Placebo)” value (“Change from Baseline in KSS” for short) (5 mg, 1 hr) of the same compound?
A: −2.833

Q: And the “KSS, ANOVA Estimate (Cmpd A - Placebo)” value (5 mg, 1 hr)?
A: −2.000

Q: What about the “Change from Baseline in KSS” value (5 mg, 2 hr) of the same compound?
A: −4.333

Q: And the “KSS, ANOVA Estimate (Cmpd A - Placebo)” value (5 mg, 2 hr)?
A: −3.500

Q: What about the “Change from Baseline in KSS” value (5 mg, 3 hr) of the same compound?
A: −2.167

Q: And the “KSS, ANOVA Estimate (Cmpd A - Placebo)” value (5 mg, 3 hr)?
A: −1.333

Q: What about the “Change from Baseline in KSS” value (5 mg, 4 hr) of the same compound?
A: −4.167

Q: What about the “KSS, ANOVA Estimate (Cmpd A - Placebo)” value (5 mg, 4 hr) of the same compound?
A: −3.333

Q: What about the “Change from Baseline in KSS” value (5 mg, 5 hr) of the same compound?
A: −3.500

Q: What about the “KSS, ANOVA Estimate (Cmpd A - Placebo)” value (5 mg, 5 hr) of the same compound?
A: −2.667

Q: And the “Change from Baseline in KSS” value (5 mg, 6 hr)?
A: −4.333

Q: What about the “KSS, ANOVA Estimate (Cmpd A - Placebo)” value (5 mg, 6 hr) of the same compound?
A: −3.500

Q: And the “Change from Baseline in KSS” value (5 mg, 7 hr)?
A: −4.333

Q: And the “KSS, ANOVA Estimate (Cmpd A - Placebo)” value (5 mg, 7 hr)?
A: −3.500

Q: What about the “Change from Baseline in KSS” value (5 mg, 8 hr) of the same compound?
A: −3.500

Q: And the “KSS, ANOVA Estimate (Cmpd A - Placebo)” value (5 mg, 8 hr)?
A: −2.667

Q: What about the “Change from Baseline in KSS” value (5 mg, 9 hr) of the same compound?
A: −1.500

Q: And the “KSS, ANOVA Estimate (Cmpd A - Placebo)” value (5 mg, 9 hr)?
A: −0.667

Q: And the “Change from Baseline in KSS” value (5 mg, 10 hr)?
A: −2.000

Q: What about the “KSS, ANOVA Estimate (Cmpd A - Placebo)” value (5 mg, 10 hr) of the same compound?
A: −1.167

Q: And the “Change from Baseline in KSS” value (5 mg, 11 hr)?
A: −0.167

Q: What about the “KSS, ANOVA Estimate (Cmpd A - Placebo)” value (5 mg, 11 hr) of the same compound?
A: 0.667

Q: And the “LS mean difference (95% CI) of KSS vs placebo during the 9 hour infusion, lower end of range” value (from here on “LS mean difference (95% CI) … lower end of range”) (5 mg, at 2 hour, 6 hour and 7 hour after the start of infusion)?
A: −3.500

Q: And the “LS mean difference (95% CI) … lower end of range” value (11.2 mg)?
A: −4.000 (−7.331, −0.669)

Q: And the “LS mean difference (95% CI) … upper end of range” value (11.2 mg)?
A: −1.500 (−3.439, 0.439)

Q: What about the “Change from Baseline in KSS” value (11.2 mg, 1 hr) of the same compound?
A: −4.500

Q: What about the “KSS, ANOVA Estimate (Cmpd A - Placebo)” value (11.2 mg, 1 hr) of the same compound?
A: −3.500

Q: And the “Change from Baseline in KSS” value (11.2 mg, 2 hr)?
A: −4.500

Q: What about the “KSS, ANOVA Estimate (Cmpd A - Placebo)” value (11.2 mg, 2 hr) of the same compound?
A: −3.500

Q: And the “Change from Baseline in KSS” value (11.2 mg, 3 hr)?
A: −2.500

Q: And the “KSS, ANOVA Estimate (Cmpd A - Placebo)” value (11.2 mg, 3 hr)?
A: −1.500

Q: What about the “Change from Baseline in KSS” value (11.2 mg, 4 hr) of the same compound?
A: −5.000

Q: And the “KSS, ANOVA Estimate (Cmpd A - Placebo)” value (11.2 mg, 4 hr)?
A: −4.000

Q: What about the “Change from Baseline in KSS” value (11.2 mg, 5 hr) of the same compound?
A: −4.000

Q: What about the “KSS, ANOVA Estimate (Cmpd A - Placebo)” value (11.2 mg, 5 hr) of the same compound?
A: −3.000

Q: And the “Change from Baseline in KSS” value (11.2 mg, 6 hr)?
A: −4.000

Q: And the “KSS, ANOVA Estimate (Cmpd A - Placebo)” value (11.2 mg, 6 hr)?
A: −3.000

Q: What about the “Change from Baseline in KSS” value (11.2 mg, 7 hr) of the same compound?
A: −4.500

Q: What about the “KSS, ANOVA Estimate (Cmpd A - Placebo)” value (11.2 mg, 7 hr) of the same compound?
A: −3.500

Q: What about the “Change from Baseline in KSS” value (11.2 mg, 8 hr) of the same compound?
A: −3.500

Q: And the “KSS, ANOVA Estimate (Cmpd A - Placebo)” value (11.2 mg, 8 hr)?
A: −2.500

Q: What about the “Change from Baseline in KSS” value (11.2 mg, 9 hr) of the same compound?
A: −3.000

Q: And the “KSS, ANOVA Estimate (Cmpd A - Placebo)” value (11.2 mg, 9 hr)?
A: −2.000

Q: And the “Change from Baseline in KSS” value (11.2 mg, 10 hr)?
A: −2.500

Q: And the “KSS, ANOVA Estimate (Cmpd A - Placebo)” value (11.2 mg, 10 hr)?
A: −1.500

Q: What about the “Change from Baseline in KSS” value (11.2 mg, 11 hr) of the same compound?
A: −2.000

Q: And the “KSS, ANOVA Estimate (Cmpd A - Placebo)” value (11.2 mg, 11 hr)?
A: −1.000

Q: What about the “LS mean difference (95% CI) … lower end of range” value (44.8 mg) of the same compound?
A: −6.947 (−9.139, −4.756)

Q: And the “LS mean difference (95% CI) … upper end of range” value (44.8 mg)?
A: −2.868 (−6.851, 1.114)

Q: What about the “Change from Baseline in KSS” value (44.8 mg, 1 hr) of the same compound?
A: −5.237

Q: What about the “KSS, ANOVA Estimate (Cmpd A - Placebo)” value (44.8 mg, 1 hr) of the same compound?
A: −6.947

Q: What about the “Change from Baseline in KSS” value (44.8 mg, 2 hr) of the same compound?
A: −3.053

Q: What about the “KSS, ANOVA Estimate (Cmpd A - Placebo)” value (44.8 mg, 2 hr) of the same compound?
A: −4.763

Q: And the “Change from Baseline in KSS” value (44.8 mg, 3 hr)?
A: −1.553

Q: What about the “KSS, ANOVA Estimate (Cmpd A - Placebo)” value (44.8 mg, 3 hr) of the same compound?
A: −3.263

Q: What about the “Change from Baseline in KSS” value (44.8 mg, 4 hr) of the same compound?
A: −2.184

Q: And the “KSS, ANOVA Estimate (Cmpd A - Placebo)” value (44.8 mg, 4 hr)?
A: −3.895

Q: What about the “Change from Baseline in KSS” value (44.8 mg, 5 hr) of the same compound?
A: −2.026

Q: And the “KSS, ANOVA Estimate (Cmpd A - Placebo)” value (44.8 mg, 5 hr)?
A: −3.737

Q: And the “Change from Baseline in KSS” value (44.8 mg, 6 hr)?
A: −1.158

Q: And the “KSS, ANOVA Estimate (Cmpd A - Placebo)” value (44.8 mg, 6 hr)?
A: −2.868

Q: What about the “Change from Baseline in KSS” value (44.8 mg, 7 hr) of the same compound?
A: −3.737

Q: And the “KSS, ANOVA Estimate (Cmpd A - Placebo)” value (44.8 mg, 7 hr)?
A: −5.447

Q: What about the “Change from Baseline in KSS” value (44.8 mg, 8 hr) of the same compound?
A: −2.921

Q: What about the “KSS, ANOVA Estimate (Cmpd A - Placebo)” value (44.8 mg, 8 hr) of the same compound?
A: −4.632

Q: What about the “Change from Baseline in KSS” value (44.8 mg, 9 hr) of the same compound?
A: −2.868

Q: What about the “KSS, ANOVA Estimate (Cmpd A - Placebo)” value (44.8 mg, 9 hr) of the same compound?
A: −4.579

Q: What about the “Change from Baseline in KSS” value (44.8 mg, 10 hr) of the same compound?
A: −0.632

Q: And the “KSS, ANOVA Estimate (Cmpd A - Placebo)” value (44.8 mg, 10 hr)?
A: −2.342

Q: What about the “Change from Baseline in KSS” value (44.8 mg, 11 hr) of the same compound?
A: 0.974

Q: What about the “KSS, ANOVA Estimate (Cmpd A - Placebo)” value (44.8 mg, 11 hr) of the same compound?
A: −0.737

Q: And the “KSS Change from Baseline, Mean” value (1 hr after start of infusion)?
A: −2.3

Q: What about the “KSS Change from Baseline, Median” value (1 hr after start of infusion) of the same compound?
A: −2.5

Q: What about the “KSS Observed Value at Visit, Mean” value (1 hr after start of infusion) of the same compound?
A: 2.7

Q: What about the “KSS Observed Value at Visit, Median” value (1 hr after start of infusion) of the same compound?
A: 2.5

Q: What about the “KSS Change from Baseline, Mean” value (2 hr after start of infusion) of the same compound?
A: −2.8

Q: And the “KSS Change from Baseline, Median” value (2 hr after start of infusion)?
A: −2.5

Q: And the “KSS Observed Value at Visit, Mean” value (2 hr after start of infusion)?
A: 2.2

Q: And the “KSS Observed Value at Visit, Median” value (2 hr after start of infusion)?
A: 2.0

Q: What about the “KSS Change from Baseline, Mean” value (3 hr after start of infusion) of the same compound?
A: −3.2

Q: What about the “KSS Change from Baseline, Median” value (3 hr after start of infusion) of the same compound?
A: −3.5

Q: What about the “KSS Observed Value at Visit, Mean” value (3 hr after start of infusion) of the same compound?
A: 1.8

Q: And the “KSS Observed Value at Visit, Median” value (3 hr after start of infusion)?
A: 1.5

Q: What about the “KSS Change from Baseline, Mean” value (4 hr after start of infusion) of the same compound?
A: −2.8

Q: And the “KSS Change from Baseline, Median” value (4 hr after start of infusion)?
A: −2.5

Q: And the “KSS Observed Value at Visit, Mean” value (4 hr after start of infusion)?
A: 2.2

Q: What about the “KSS Observed Value at Visit, Median” value (4 hr after start of infusion) of the same compound?
A: 1.5

Q: What about the “KSS Change from Baseline, Mean” value (5 hr after start of infusion) of the same compound?
A: −3.0

Q: And the “KSS Change from Baseline, Median” value (5 hr after start of infusion)?
A: −3.0

Q: And the “KSS Observed Value at Visit, Mean” value (5 hr after start of infusion)?
A: 2.0

Q: What about the “KSS Observed Value at Visit, Median” value (5 hr after start of infusion) of the same compound?
A: 2.0

Q: What about the “KSS Change from Baseline, Mean” value (6 hr after start of infusion) of the same compound?
A: −3.2

Q: And the “KSS Change from Baseline, Median” value (6 hr after start of infusion)?
A: −3.5

Q: And the “KSS Observed Value at Visit, Mean” value (6 hr after start of infusion)?
A: 1.8

Q: And the “KSS Observed Value at Visit, Median” value (6 hr after start of infusion)?
A: 1.5

Q: What about the “KSS Change from Baseline, Mean” value (7 hr after start of infusion) of the same compound?
A: −2.5

Q: What about the “KSS Change from Baseline, Median” value (7 hr after start of infusion) of the same compound?
A: −2.5

Q: And the “KSS Observed Value at Visit, Mean” value (7 hr after start of infusion)?
A: 2.5

Q: What about the “KSS Observed Value at Visit, Median” value (7 hr after start of infusion) of the same compound?
A: 2.5

Q: And the “KSS Change from Baseline, Mean” value (8 hr after start of infusion)?
A: −2.7

Q: And the “KSS Change from Baseline, Median” value (8 hr after start of infusion)?
A: −3.0

Q: What about the “KSS Observed Value at Visit, Mean” value (8 hr after start of infusion) of the same compound?
A: 2.3
